Converted amounts (≈) assume the structure as drawn. Read-outs that look alike come from different tables or passages of the source.
Legend:
[1] = system: PA-009, blaGES; test: MIC / checkerboard with ATM; format: cell-based, P. aeruginosa; set-up: key to Susceptibility category: S: susceptible; I: intermediate; R: resistant
[2] = system: PA-014, blaGES; test: MIC / checkerboard with ATM; format: cell-based, P. aeruginosa; set-up: key to Susceptibility category: S: susceptible; I: intermediate; R: resistant
[3] = system: PA-016, blaIMP; test: MIC / checkerboard with ATM; format: cell-based, P. aeruginosa; set-up: key to Susceptibility category: S: susceptible; I: intermediate; R: resistant
[4] = system: PA-030, blaIMP; test: MIC / checkerboard with ATM; format: cell-based, P. aeruginosa; set-up: key to Susceptibility category: S: susceptible; I: intermediate; R: resistant; conditions: PA-030
[5] = system: PA-032, blaIMP; test: MIC / checkerboard with ATM; format: cell-based, P. aeruginosa; set-up: key to Susceptibility category: S: susceptible; I: intermediate; R: resistant; conditions: for MIC: Pseudomonas aeruginosa
[6] = system: NDM-1-Producing P. aeruginosa (PA-017, blaNDM); test: MIC / checkerboard with ATM; format: cell-based; set-up: key to Susceptibility category: S: susceptible; I: intermediate; R: resistant; conditions: PA-017
[7] = system: PA-025, blaNDM; test: MIC / checkerboard with ATM; format: cell-based, P. aeruginosa; set-up: key to Susceptibility category: S: susceptible; I: intermediate; R: resistant; conditions: PA-025
[8] = system: PA-026, blaNDM; test: MIC / checkerboard with ATM; format: cell-based, P. aeruginosa; set-up: key to Susceptibility category: S: susceptible; I: intermediate; R: resistant
[9] = system: PA-028, blaNDM; test: MIC / checkerboard with ATM; format: cell-based, P. aeruginosa; set-up: key to Susceptibility category: S: susceptible; I: intermediate; R: resistant; conditions: for MIC: Pseudomonas aeruginosa
[10] = system: PA-036, blaNDM; test: MIC / checkerboard with ATM; format: cell-based, P. aeruginosa; set-up: key to Susceptibility category: S: susceptible; I: intermediate; R: resistant; conditions: PA-036
[11] = system: PA-041, blaNDM; test: MIC / checkerboard with ATM; format: cell-based, P. aeruginosa; set-up: key to Susceptibility category: S: susceptible; I: intermediate; R: resistant; conditions: for MIC: Pseudomonas aeruginosa
[12] = system: PA-037, blaIMP/NDM; test: MIC / checkerboard with ATM; format: cell-based, P. aeruginosa; set-up: key to Susceptibility category: S: susceptible; I: intermediate; R: resistant; conditions: for MIC: Pseudomonas aeruginosa
[13] = system: ATM-Susceptible CPPA (n = 11); test: MIC distribution over clinical isolates; format: cell-based, P. aeruginosa; conditions: Pseudomonas aeruginosa

MIC ([1]; Pseudomonas aeruginosa, read-out: MIC of ATM, PA-009, ATM alone (5 at 0 mg/L)): 32 µg/mL
MIC ([2]; Pseudomonas aeruginosa, read-out: MIC of ATM, PA-014, ATM alone (5 at 0 mg/L)): 16 µg/mL
MIC ([3]; Pseudomonas aeruginosa, read-out: MIC of ATM, PA-016, ATM alone (5 at 0 mg/L)): 32 µg/mL
MIC ([4]; Pseudomonas aeruginosa, Table S2, read-out: MIC value): 32 µg/mL
MIC ([5]; PA-032, Table S2, read-out: MIC value): 4 µg/mL
MIC ([5]; read-out: MIC of ATM, PA-032, ATM alone (5 at 0 mg/L)): 4 µg/mL
MIC ([8]; Pseudomonas aeruginosa, read-out: MIC of ATM, PA-026, ATM alone (5 at 0 mg/L)): 8 µg/mL
MIC ([9]; PA-028, Table S2, read-out: MIC value): 4 µg/mL
MIC ([9]; read-out: MIC of ATM, PA-028, ATM alone (5 at 0 mg/L)): 8 µg/mL
MIC ([11]; PA-041, Table S2, read-out: MIC value): 4 µg/mL
MIC ([11]; read-out: MIC of ATM, PA-041, ATM alone (5 at 0 mg/L)): 4 µg/mL
MIC ([12]; PA-037, Table S2, read-out: MIC value): 2 µg/mL
MIC ([12]; read-out: MIC of ATM, PA-037, ATM alone (5 at 0 mg/L)): 4 µg/mL
MIC50 ([13]; read-out: MIC50 of ATM, 5 at 0 mg/L): 4 µg/mL (≈ 9.19 µM)
MIC90 ([13]; read-out: MIC90 of ATM, 5 at 0 mg/L): 8 µg/mL (≈ 18.4 µM)
SMILES: C[C@H]1[C@H](NC(=O)/C(=N\OC(C)(C)C(=O)O)c2csc(N)n2)C(=O)N1S(=O)(=O)O [ATM, aztreonam]
Susceptibility to ATM ([1]; PA-009, ATM alone): R (R (resistant, MIC ≥ 32 mg/L))
Susceptibility category ([1]; PA-009, Table S2): R
Susceptibility to ATM ([2]; PA-014, ATM alone): I (I (intermediate, MIC = 16 mg/L))
Susceptibility category ([2]; PA-014, Table S2): I
Susceptibility to ATM ([3]; PA-016, ATM alone): R (R (resistant, MIC ≥ 32 mg/L))
Susceptibility category ([3]; PA-016, Table S2): R
Susceptibility to ATM ([4]; ATM alone): R (R (resistant, MIC ≥ 32 mg/L))
Susceptibility category ([4]; Table S2): R
Susceptibility to ATM ([5]; PA-032, ATM alone): S (S (sensitive, MIC ≤ 8 mg/L))
Susceptibility category ([5]; PA-032, Table S2): S
Susceptibility to ATM ([6]; ATM alone): I (I (intermediate, MIC = 16 mg/L))
Susceptibility category ([6]; Table S2): I
Susceptibility to ATM ([7]; ATM alone): I (I (intermediate, MIC = 16 mg/L))
Susceptibility category ([7]; Table S2): I
Susceptibility to ATM ([8]; PA-026, ATM alone): S (S (sensitive, MIC ≤ 8 mg/L))
Susceptibility category ([8]; PA-026, Table S2): S
Susceptibility to ATM ([9]; PA-028, ATM alone): S (S (sensitive, MIC ≤ 8 mg/L))
Susceptibility category ([9]; PA-028, Table S2): S
Susceptibility to ATM ([10]; ATM alone): I (I (intermediate, MIC = 16 mg/L))
Susceptibility category ([10]; Table S2): I
Susceptibility to ATM ([11]; PA-041, ATM alone): S (S (sensitive, MIC ≤ 8 mg/L))
Susceptibility category ([11]; PA-041, Table S2): S
Susceptibility to ATM ([12]; PA-037, ATM alone): S (S (sensitive, MIC ≤ 8 mg/L))
Susceptibility category ([12]; PA-037, Table S2): S

Reference: publication PMC11672637, “7-O-Carboxylic Acid-Substituted 3-O-Alkyl Difluoroquercetin; An Aztreonam-Potentiating Agent Against Carbapenemase-Producing Pseudomonas aeruginosa Through Simultaneous Inhibition of Metallo-β-Lactamase and Efflux Pump” (Antibiotics, 2024)
